Test results taken from article PMC2033597, “The Arg-Gly-Asp-containing peptide, rhodostomin, inhibits in vitro cell adhesion to extracellular matrices and platelet aggregation caused by saos-2 human osteosarcoma cells” (British Journal of Cancer, 1995).
pIC50: −log10 of the molar value. Read-outs that look alike come from different tables or passages of the source.

How the values were obtained:
[1] = tested on: Saos-2 tumour cell-induced platelet aggregation in heparinised human platelet-rich plasma; assay type: cell-based; details: for pIC50: heparinised human PRP preincubated with peptide at 37C for 2 min, then Saos-2 cells, n = 6, read-out: IC50 for inhibition of Saos-2 TCIPA
Excerpt: Brils JownW d Canmer (15) 71, 265-270 ? 1995 S9okon Press Al rghts reserved 0007-0920/95 $9.00 V The Arg-Gly-Asp-containing peptide, rhodostomin, inhibits in vitro cell adhesion to extracellular matrices and platelet aggregation caused by Saos-2 human osteosarcoma cells H-S Chiang', R-S Yang2 and T-F Huang' 'Pharmacological Institute and 'Department of Orthopaedics, College of Medicine, National Taiwan UniversitY, Taipei, Taiwan. Sumary Saos-2 cells, derived from a primary human osteosarcoma, caused dose-dependent platelet aggrega- tion in heparinised human platelet-rich plasma. […] The cell suspension shortened the plasma recalcification times of normal, factor VIII-deficient and factor IX-deficient human plasmas in a dose- dependent manner. […] Moreover, a monoclonal antibody (MAb) against human tissue factor completely abolished TCIPA. […] Keywords: osteosarcoma; platelet aggregation; tissue factor: integrin; extracellular matrix: Arg-Gly-Asp- containing peptide The formation of a metastatic lesion is the result of a com- plex series of events called the 'metastatic cascade'. Following intravasation, circulating tumour cells interact with a variety of host cells such as effectors of the cellular immune res- ponses, endothelial cells and platelets. The interaction of tumour cells and host platelets may promote the metastatic process (Honn et al., 1992). Indeed, there is evidence that the incidence of lymph node metastasis caused by ten cell lines, from rat renal carcinoma, in vivo correlates well with their ability to induce platelet aggregation in vitro (Pearlstein et al., 1980). Platelets may enhance tumour cell adhesion to endothelial cells and subendothelial surfaces during the haematogenous metastasis process. The cell-cell or cell-extracellular matrix (ECM) interactions of both normal and tumour cells have been proven to be mediated by a variety of plasma memb- rane receptors including the integrin family (Hynes et al., 1987). Integrins are transmembrane proteins which link the ECM with the cell cytoskeleton. Such linkage enables cellular attachment to substrata and forms focal adhesion plaques in distinct plasma membrane regions which establish contact with the matrix (Grunicke, 1990). […] Purified components from snake venoms have been widely studied and found to affect platelet function, including trigramin-like anti-platelet peptides (Huang et al., 1987a, 1991a,b; Shebuski et al., 1989; Rucinski et al., 1990). Trigra- min, an RGD-containing peptide purified from venom of the Trimeresurus gramineus snake, is a specific antagonist of platelet membrane […] (Huang et al., 1987a, 1989). […] These peptides all contain the RGD sequence, are rich in cysteine and bind with high affinity to the surface of platelets. The in vitro metastatic characterisation of osteosarcoma is not yet well understood. In the present study, we examined in vitro the TCIPA caused by Saos-2 human osteosarcoma cells. We probed Saos-2 TCIPA with a variety of inhibitors and monoclonal antibodies in order to characterise fully the mechanism of this phenomenon. […] Materals and metbods Materials Saos-2 human osteosarcoma cells were obtained from ATCC (American Type Culture Collection) Laboratory. Crude venom of Agkistrodon rhodostoma (or Calloselasma rhodos- toma) was purchased from Latoxan (Rosans, France) and stored at -20?C. Rhodostomin was purified from venom of A. rhodostoma as previously described (Huang et al., 1989, 1990). GRGDS was purchased from Peninsula Laboratories, CA, USA. Gly-Arg-Gly-Glu-Ser (GRGES) was synthesised by the Biochemical Institute, College of Medicine, National Taiwan University. Apyrase (grade III), heparin, hirudin (grade IV from leeches), fibronectin (from bovine plasma), vitronectin (from human plasma), laminin (from basement membrane of mouse sarcoma), collagen type I (from calf skin) and type IV were obtained from Sigma (St Louis, MO, USA). Tissue thromboplastin reagent was Simplastin Excel standard (Organon Teknika, NC, USA). […]

[2] = tested on: Saos-2 cell adhesion to RGD-dependent ECM; assay: Saos-2 cell adhesion to RGD-dependent ECM (overall); assay type: cell-based, human; details: fibronectin, vitronectin, collagen type I
Excerpt: Brils JownW d Canmer (15) 71, 265-270 ? 1995 S9okon Press Al rghts reserved 0007-0920/95 $9.00 V The Arg-Gly-Asp-containing peptide, rhodostomin, inhibits in vitro cell adhesion to extracellular matrices and platelet aggregation caused by Saos-2 human osteosarcoma cells H-S Chiang', R-S Yang2 and T-F Huang' 'Pharmacological Institute and 'Department of Orthopaedics, College of Medicine, National Taiwan UniversitY, Taipei, Taiwan. Sumary Saos-2 cells, derived from a primary human osteosarcoma, caused dose-dependent platelet aggrega- tion in heparinised human platelet-rich plasma. […] The cell suspension shortened the plasma recalcification times of normal, factor VIII-deficient and factor IX-deficient human plasmas in a dose- dependent manner. […] Moreover, a monoclonal antibody (MAb) against human tissue factor completely abolished TCIPA. […] Keywords: osteosarcoma; platelet aggregation; tissue factor: integrin; extracellular matrix: Arg-Gly-Asp- containing peptide The formation of a metastatic lesion is the result of a com- plex series of events called the 'metastatic cascade'. Following intravasation, circulating tumour cells interact with a variety of host cells such as effectors of the cellular immune res- ponses, endothelial cells and platelets. The interaction of tumour cells and host platelets may promote the metastatic process (Honn et al., 1992). […]

N=C(N)NCCC[C@H](NC(=O)CN)C(=O)NCC(=O)N[C@@H](CC(=O)O)C(=O)N[C@@H](CO)C(=O)O [GRGDS, Gly-Arg-Gly-Asp-Ser]
pIC50 [1]: 3.25

Gly-Arg-Gly-Glu-Ser [GRGES, peptide synthesised by the Biochemical Institute, National Taiwan University]
Inhibition of Saos-2 TCIPA ([1]; GRGES 1 mg ml-1, pretreatment of platelets): no significant effect

apyrase
Inhibition of Saos-2 TCIPA ([1]; apyrase 0.5 U ml-1 final concentration in PRP, preincubated at 37C for 2 min): did not inhibit
Lag phase preceding TCIPA ([1]; apyrase 0.5 U ml-1 in PRP): prolonged

heparin
Lag phase preceding platelet aggregation ([1]; heparin raised from 1 to 6 units ml-1 (data not shown)): markedly prolonged

hirudin
Inhibition of Saos-2 TCIPA ([1]; hirudin 5 U ml-1, PRP preincubated at 37C for 2 min): completely inhibited

rhodostomin
pIC50 [1]: 7.52
Potency relative to GRGDS in inhibiting TCIPA, on a molar basis ([1]; ratio of IC50 values): about 18 000 fold
Inhibition of Saos-2 TCIPA ([1]; rhodostomin, pretreatment of platelets): complely inhibited
Potency relative to GRGDS in inhibiting Saos-2 cell adhesion to RGD-dependent ECM, on a molar basis [2]: ~1000 fold
